Source: patent publication US20060264460A1 (Wyeth, priority 2005, published 2006)

target: T1, human Cot/Tpl2 kinase (Homo sapiens, UniProt P41279); assay: Tpl2/Cot kinase assay: GST-MEK1 phosphorylation detected by ELISA (DELFIA Eu); type: biochemical; conditions: 0.4 nM Tpl2, 35 nM GST-MEK1, 50 uM ATP, 1 h at 30° C.
T1 construct: human Cot/Tpl2 kinase construct encoding residues 30-398; 6His (N); made in house; host or cells: Sf9 insect cells, baculovirus system (BD Biosciences)
How it was run: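 Substrate phosphorylation (GST-MEK1 Ser217/221) quantified by DELFIA europium ELISA, yielding IC50 values. Reaction: 1 h at 30° C, pH 7.2 MOPS buffer, 50 uM ATP, 35 nM GST-MEK1, 0.4 nM monomeric His-Tpl2 purified from Sf9 cells, compounds at 1% final DMSO; stopped with EDTA.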

T1 sequence (P41279 30-398): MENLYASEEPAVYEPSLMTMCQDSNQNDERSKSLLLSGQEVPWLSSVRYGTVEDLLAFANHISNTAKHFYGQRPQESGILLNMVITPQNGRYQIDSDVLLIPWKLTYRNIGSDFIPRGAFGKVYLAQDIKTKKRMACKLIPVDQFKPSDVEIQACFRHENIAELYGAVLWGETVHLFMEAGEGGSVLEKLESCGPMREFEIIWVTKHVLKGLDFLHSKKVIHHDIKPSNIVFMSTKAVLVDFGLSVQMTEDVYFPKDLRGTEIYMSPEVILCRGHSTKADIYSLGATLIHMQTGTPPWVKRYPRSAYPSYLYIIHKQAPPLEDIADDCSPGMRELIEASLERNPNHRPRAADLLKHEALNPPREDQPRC

SMILES	IC50
Cn1ccnc1CNc1cc(Br)c2ncc(C#N)c(Nc3ccc(F)c(Cl)c3)c2c1 [Example 220, 8-bromo-4-[(3-chloro-4-fluorophenyl)amino]-6-{[(1-methyl-1H-imidazol-2-yl)methyl]amino}quinoline-3-carbonitrile]	26 nM
N#Cc1cnc2c(Br)cc(NCc3cccc[n+]3[O-])cc2c1Nc1ccc(F)c(Cl)c1 [Example 101, 8-bromo-4-(3-chloro-4-fluorophenylamino)-6-(1-oxypyridin-2-ylmethylamino)quinoline-3-carbonitrile]	4.1 nM
Cc1cc2ncc(C#N)c(Nc3ccc(F)c(Cl)c3)c2cc1NCc1cnc[nH]1 [Example 226, 4-[(3-chloro-4-fluorophenyl)amino]-6-[(1H-imidazol-5-ylmethyl)amino]-7-methylquinoline-3-carbonitrile]	> 40000 nM
N#Cc1cnc2ccc(NCc3cccc(S(N)(=O)=O)c3)cc2c1Nc1ccc(F)c(Cl)c1 [Example 168, 3-((4-(3-chloro-4-fluorophenylamino)-3-cyanoquinolin-6-ylamino)methyl)benzenesulfonamide]	150 nM
N#Cc1cnc2c(Cl)cc(NCc3cn(C4CCC5(CC4)OCCO5)nn3)cc2c1Nc1ccc(F)c(Cl)c1 [Example 332, 8-chloro-4-[(3-chloro-4-fluorophenyl)amino]-6-({[1-(1,4-dioxaspiro[4.5]dec-8-yl)-1H-1,2,3-triazol-4-yl]methyl}amino)quinoline-3-carbonitrile]	39 nM
CS(=O)(=O)Nc1cccc(CNc2ccc3ncc(C#N)c(Nc4ccc(F)c(Cl)c4)c3c2)c1 [Example 18, N-(3-{[4-(3-Chloro-4-fluoro-phenylamino)-3-cyano-quinolin-6-ylamino]-methyl}-phenyl)-methanesulfonamide]	280 nM
N#Cc1cnc2ccc(NCC3CCCNC3)cc2c1Nc1ccc(F)c(Cl)c1 (stereo not shown) [Example 64, 4-(3-Chloro-4-fluoro-phenylamino)-6-[(piperidin-3-ylmethyl)-amino]-quinoline-3-carbonitrile]	> 40000 nM
CCOC(OCC)c1[nH]nnc1CNc1cc(Br)c2ncc(C#N)c(Nc3ccc(F)c(Cl)c3)c2c1 [Example 293, 8-Bromo-4-(3-chloro-4-fluoro-phenylamino)-6-[(5-diethoxymethyl-1H-[1,2,3]triazol-4-ylmethyl)-amino]-quinoline-3-carbonitrile]	13 nM
N#Cc1cnc2c(Br)cc(NCc3cnc[nH]3)cc2c1Nc1ccc(F)c(Cl)c1 [Example 76, 6-((1H-imidazol-5-yl)methylamino)-8-bromo-4-(3-chloro-4-fluorophenylamino)quinoline-3-carbonitrile]	6.8 nM
CN(C)C(=O)CNc1ccc2ncc(C#N)c(Nc3ccc(F)c(Cl)c3)c2c1 [Example 103, 2-(4-(3-chloro-4-fluorophenylamino)-3-cyanoquinolin-6-ylamino)-N,N-dimethylacetamide]	510 nM
CN(C)C(=O)c1cc(NCc2nc3ccccc3n2C)cc2c(Nc3ccc(F)c(Cl)c3)c(C#N)cnc12 [Example 83, 4-(3-chloro-4-fluorophenylamino)-3-cyano-N,N-dimethyl-6-((1-methyl-1H-benzo[d]imidazol-2-yl)methylamino)quinoline-8-carboxamide]	63 nM
N#Cc1cnc2c(Br)cc(NCc3nn[nH]c3CNCCO)cc2c1Nc1ccc(F)c(Cl)c1 [Example 295, 8-Bromo-4-(3-chloro-4-fluoro-phenylamino)-6-({5-[(2-hydroxy-ethylamino)-methyl]-1H-[1,2,3]triazol-4-ylmethyl}-amino)-quinoline-3-carbonitrile]	67 nM
N#Cc1cnc2c(F)cc(NCc3cc[n+]([O-])cc3)cc2c1Nc1ccc(F)c(Cl)c1 [Example 270, 4-[(3-Chloro-4-fluorophenyl)amino]-8-fluoro-6-{[(1-oxidopyridin-4-yl)methyl]amino}quinoline-3-carbonitrile]	100 nM
COCCOc1ccc(C#N)cc1CNc1ccc2ncc(C#N)c(Nc3ccc(F)c(Cl)c3)c2c1 [Example 57, 4-(3-Chloro-4-fluoro-phenylamino)-6-[5-cyano-2-(2-methoxy-ethoxy)-benzylamino]-quinoline-3-carbonitrile]	650 nM

same assay, conditions: Table 2; Tpl2/Cot kinase, GST-MEK1 substrate, 50 uM ATP

SMILES	IC50
N#Cc1cnc2ccc(NC3CCN(Cc4ccccc4)CC3)cc2c1Nc1ccc(F)c(Cl)c1 [Example 378]	1700 nM
N#Cc1cnc2c(Br)cc(NCc3cncn3CCN3CCOCC3)cc2c1Nc1ccc(F)c(Cl)c1 [Example 482]	160 nM
N#Cc1cnc2ccc(NCCN3CCOCC3)cc2c1Sc1ccc(F)c(Cl)c1 [Example 358]	> 40000 nM
N#Cc1cnc2c(Br)cc(NCc3cn(-c4cc[n+]([O-])cc4)nn3)cc2c1Nc1ccc(F)c(Cl)c1 [Example 577]	15 nM
N#Cc1cnc2c(Br)cc(NCc3ccc(OC(F)(F)C(F)F)cc3)cc2c1Nc1ccc(F)c(Cl)c1 [Example 424]	> 40000 nM
N#Cc1cnc2c(Br)cc(NCc3cn(CCc4ccccn4)nn3)cc2c1Nc1ccc(F)c(Cl)c1 [Example 558]	3.4 nM
CCN1CCC(CCn2cc(CNc3cc(Br)c4ncc(C#N)c(Nc5ccc(F)c(Cl)c5)c4c3)nn2)CC1 [Example 568]	64 nM
CN(C)CCNC(=O)CNc1cc(Cl)c2ncc(C#N)c(Nc3ccc(F)c(Cl)c3)c2c1 [Example 605]	1600 nM
N#Cc1cnc2c(Cl)cc(NCc3cccc(O)c3O)cc2c1Nc1ccc(F)c(Cl)c1 [Example 458]	1300 nM
N#Cc1cnc2c(Cl)cc(NCC(=O)NCCN3CCOCC3)cc2c1Nc1ccc(F)c(Cl)c1 [Example 608]	530 nM

same assay, conditions: Tpl2/Cot kinase, GST-MEK1 substrate, 50 uM ATP

SMILES	IC50
CS(=O)(=O)CCn1cnc(CNc2cc(Br)c3ncc(C#N)c(Nc4ccc(F)c(Cl)c4)c3c2)c1 [Example 702]	43 nM
N#Cc1cnc2c(Cl)cc(NCCNC(=O)Cc3ccccn3)cc2c1Nc1ccc(F)c(Cl)c1 [Example 861]	> 3000 nM
N#Cc1cnc2c(Cl)cc(NCc3cn(-c4cc[n+]([O-])cc4)nn3)cc2c1Nc1ccc(F)c(Cl)c1 [Example 749]	16 nM
CSCCn1cc(CNc2cc(Br)c3ncc(C#N)c(Nc4ccc(F)c(Cl)c4)c3c2)nn1 [Example 682]	82 nM
CN1CCC(Cn2cc(CNc3cc(Br)c4ncc(C#N)c(Nc5ccc(F)c(Cl)c5)c4c3)nn2)CC1 [Example 680]	12 nM
CCN1CC(CCn2cc(CNc3cc(Cl)c4ncc(C#N)c(Nc5ccc(F)c(Cl)c5)c4c3)nn2)N(c2ccccc2)C1=O (stereo not shown) [Example 791]	25 nM
Cc1ncccc1Cn1cc(CNc2cc(Cl)c3ncc(C#N)c(Nc4ccc(F)c(Cl)c4)c3c2)nn1 [Example 840]	10 nM

same assay, conditions: Tpl2/Cot kinase, GST-MEK1 substrate, 50 uM ATP, 1 h at 30° C.; Table 2

SMILES	IC50
N#Cc1cnc2c(Cl)cc(NCc3cn(C4CCOC4=O)nn3)cc2c1Nc1ccc(F)c(Cl)c1 (stereo not shown) [Example 934]	18 nM
N#Cc1cnc2c(Cl)cc(NCc3cn(C4CCN(C5CC5)CC4)nn3)cc2c1Nc1ccc(F)c(Cl)c1 [Example 1003]	17 nM
N#Cc1cnc2c(Cl)cc(N(Cc3cn(C4CCN(C(=O)OCCF)CC4)nn3)C(=O)OCCF)cc2c1Nc1ccc(F)c(Cl)c1 [Example 983]	> 3000 nM
N#Cc1cnc2c(Cl)cc(N(Cc3cn(C4CCN(C5CCC5)CC4)nn3)C3CCC3)cc2c1Nc1ccc(F)c(Cl)c1 [Example 1029]	290 nM
CN1CCCC1CCn1cc(CNc2cc(Cl)c3ncc(C#N)c(NC4CCOCC4)c3c2)nn1 (stereo not shown) [Example 952]	1130 nM
CCN1C2CCC1CC(n1cc(CNc3cc(Cl)c4ncc(C#N)c(Nc5ccc(F)c(Cl)c5)c4c3)nn1)C2 (stereo not shown) [Example 1005]	41 nM
